Measured values published in EP3811940B1, “SUBSTITUTED 4,5'-BITHIAZOLES AS INHIBITORS OF THE HUMAN DNA TOPOISOMERASE II” (Kemijski Institut, priority 2019, dated 2021).
Like-named read-outs stand apart in the source and are kept apart here.

What was measured:
[1] = biological target: T1, human topo IIα (Homo sapiens, UniProt P11388); assay: HTS relaxation assay of human topo IIα; assay type: biochemical; details: screening at 7.8, 31.5, 125 and 500 µM
T1 construct: purchased Inspiralis (Norwich, UK)
Procedure: The 14 selected compounds from the class of substituted 4,5'-bithiazoles were experimentally assayed if they inhibit catalytic activity of human topo IIα using an established high-throughput screening (HTS) relaxation assay for human topo IIα [24].
The HTS assays primarily served to select compounds for further evaluation.
Plate was rehydrated using wash buffer (20 mM Tris-HCl (pH = 7.6), 137 mM NaCl, 0.005 % (w/v) BSA, 0.05 % (v/v) TWEEN-20®) and biotinylated oligonucleotide was immobilized onto the wells. Next, the excess oligonucleotide was washed off with wash buffer. Enzyme assay was carried out in reaction volume of 30 µL using 0.75 µg supercoiled plasmid pNO1 as a substrate and human topo IIα. Enzyme was diluted to the appropriate concentration with dilution buffer comprised of 50 mM Tris-Hcl (pH = 7.5), 100 mM NaCl, 1 mM DTT, 0.5 mM EDTA, 50 % (v/v) glycerol and 50 µg/mL albumin. Tested compounds (0.3 µL) were added as a stock solution in DMSO and final concentration of DMSO was 1 %, respectively. Reactions were incubated at 37 °C for 30 min, and TF buffer (50 mM NaOAc (pH = 5.0), 50 mM NaCl, 50 mM MgCl2) was added to the wells and incubated at room temperature for additional 30 min to allow the triplex biotin-oligonucleotid-plasmid formation. To eliminate the aggregation and non-specific inhibition a surfactant (TWEEN-20®) was added to the reaction mixture. Unbound plasmid was washed off with TF buffer and stained with the DNA-detection Dye in the T10 buffer (10 mM Tris-HCl (pH = 8) and 1 mM EDTA) was added. After mixing, fluorescence was read using Tecan fluorimeter (Excitation: 485 nm and Emission: 535 nm). Screening was performed at the inhibitor concentrations of 7.8, 31.5, 125 and 500 µM. IC50 values were calculated using GraphPad Prism 6.0 software and represent the concentrations of inhibitors where residual activity of the enzyme was 50 % [24].

[2] = tested on: HepG2 cells; assay: MTS cytotoxicity assay, HepG2; assay type: cell-based, human; details: for effect on the tested cell lines: initial screening, 24 h, 100 µM for compound 6, 200 µM for 8 and 11, result in words; for EC50: Homo sapiens, interval in brackets
Text: (§1) We determined the cytotoxicity of the tested compounds on human breast cancer MCF-7 and human hepatocellular carcinoma HepG2 cancer cell lines using MTS assay. Both selected human cancer cell lines are representative and well-established systems for cell-based evaluation of potential anticancer compounds. Etoposide was again used as a positive control (PC).
(§2) In the first step we performed the initial screening of compounds 1-14 at one concentration. […] Exponentially growing cells were exposed to all compounds for 24 h and the results are represented in Figure 3A.
(§3) In vitro cytotoxicity of investigated compounds was evaluated in two human cancer cell lines: the […] cell lines. The HepG2 cells (ATCC) were cultivated at 37 °C and 5 % CO2 in MEME medium (M2414, Sigma) supplemented with 10 % FBS, 2 mM L-Glutamine, 1 % NEAA, 2.2 g/L NaHCO3, 1 mM sodium pyruvate and 100 IU/mL penicillin/ streptomycin and MCF-7 (ATCC) were cultivated in Eagle's MEM medium (M5650, Sigma), supplemented with 10 % fetal bovine serum, 2 mM glutamine, and 100 IU/mL penicillin/streptomycin. After the exposure to the tested compounds the viability of HepG2 and MCF-7 cells was determined by MTS tetrazolium reduction assay. The cells were seeded onto 96-well microplates (Nunc, TermoFisher Scientific, Waltham, MA, USA) at densities of 8000 cells per well (HepG2) and 7000 cells per well (MCF-7) in […] growth medium and incubated overnight to attach. The next day, the growth medium was replaced by the fresh complete growth medium containing appropriate concentrations of the compounds. […] Finally, the absorbance was measured at wavelength of 490 nm using a Microplate Reader (Synergy MX, BioTek, Winooski, VT, USA). […] Assay was performed at 5 concentrations of each compound; 2, 25, 50, 100 and 200 µM for compounds 1, 7 and 14 and 1, 12.5, 25, 50, 100 µM for compounds 9 and 10. […] Cell viability was determined by comparing the OD (optical density) of the wells containing the cells treated with investigated compounds with those of solvent control cells and presented as % of cell viability ± SD. Experiments were performed three times independently each time in at least three replicates. EC50 values were calculated by non-linear regression analysis using GraphPad Prism 7.0 Software. Statistical significance between treated groups and the control was determined by One-way analysis of variance and Dunnett's Multiple Comparison Test.

[3] = tested on: MCF-7 cells; assay: MTS cytotoxicity assay, MCF-7; assay type: cell-based, human; details: for effect on the tested cell lines: initial screening, 24 h, 100 µM for compound 6, 200 µM for 8 and 11, result in words; for EC50: Homo sapiens, interval in brackets
Text: as §1, §2, §3

[4] = solubility in the cell growth media; assay type: physicochemical; details: result in words
[5] = HepG2, read-out: EC50 [µM] HepG2 (24h), 24h exposure
[6] = HepG2, 72h exposure, read-out: EC50 [µM] HepG2 (72h)
[7] = MCF7, read-out: EC50 [µM] MCF-7 (24h), 24h exposure
[8] = MCF7, 72h exposure, read-out: EC50 [µM] MCF-7 (72h)

T1 sequence (P11388 whole entry): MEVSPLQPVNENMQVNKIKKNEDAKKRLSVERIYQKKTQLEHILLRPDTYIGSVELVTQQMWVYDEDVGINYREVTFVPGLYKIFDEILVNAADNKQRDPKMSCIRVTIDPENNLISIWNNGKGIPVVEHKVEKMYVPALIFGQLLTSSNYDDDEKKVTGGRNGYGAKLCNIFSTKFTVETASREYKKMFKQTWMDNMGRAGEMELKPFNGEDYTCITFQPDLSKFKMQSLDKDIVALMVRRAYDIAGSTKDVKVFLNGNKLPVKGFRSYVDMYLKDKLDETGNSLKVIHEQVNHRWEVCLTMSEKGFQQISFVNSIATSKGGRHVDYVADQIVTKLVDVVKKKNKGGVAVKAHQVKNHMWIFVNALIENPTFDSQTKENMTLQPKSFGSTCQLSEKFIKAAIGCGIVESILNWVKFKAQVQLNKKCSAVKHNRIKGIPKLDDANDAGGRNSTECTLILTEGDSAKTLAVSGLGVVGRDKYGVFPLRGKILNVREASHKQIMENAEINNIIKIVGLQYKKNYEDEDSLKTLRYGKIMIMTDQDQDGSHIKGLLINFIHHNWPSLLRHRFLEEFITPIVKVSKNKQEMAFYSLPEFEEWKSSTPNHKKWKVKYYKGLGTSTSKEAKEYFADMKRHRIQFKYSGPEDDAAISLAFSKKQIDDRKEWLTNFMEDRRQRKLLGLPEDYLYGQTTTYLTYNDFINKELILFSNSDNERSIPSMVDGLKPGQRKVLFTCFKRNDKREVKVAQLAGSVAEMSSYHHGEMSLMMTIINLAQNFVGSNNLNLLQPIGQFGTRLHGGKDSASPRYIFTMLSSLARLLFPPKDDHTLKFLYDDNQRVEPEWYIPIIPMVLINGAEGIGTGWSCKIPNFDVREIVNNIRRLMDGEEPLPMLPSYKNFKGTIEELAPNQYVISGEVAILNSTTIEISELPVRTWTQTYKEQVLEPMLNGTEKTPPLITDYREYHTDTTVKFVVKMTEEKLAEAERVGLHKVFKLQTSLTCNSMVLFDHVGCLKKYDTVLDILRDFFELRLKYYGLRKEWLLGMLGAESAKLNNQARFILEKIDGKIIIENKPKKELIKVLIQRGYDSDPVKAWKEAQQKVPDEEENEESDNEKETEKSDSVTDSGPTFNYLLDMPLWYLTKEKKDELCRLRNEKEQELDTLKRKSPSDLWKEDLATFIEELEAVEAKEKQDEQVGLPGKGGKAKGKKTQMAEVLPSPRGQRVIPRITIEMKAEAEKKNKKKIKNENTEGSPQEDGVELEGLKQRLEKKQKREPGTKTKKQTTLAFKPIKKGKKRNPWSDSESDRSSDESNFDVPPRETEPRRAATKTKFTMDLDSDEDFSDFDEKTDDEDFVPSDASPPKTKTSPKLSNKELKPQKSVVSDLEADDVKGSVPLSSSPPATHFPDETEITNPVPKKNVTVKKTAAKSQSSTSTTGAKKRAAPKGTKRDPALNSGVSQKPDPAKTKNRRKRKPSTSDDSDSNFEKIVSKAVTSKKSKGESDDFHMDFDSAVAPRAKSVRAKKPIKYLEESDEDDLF

Cc1cc(NS(=O)(=O)c2ccc(Nc3nc(-c4sc(N)nc4C)cs3)cc2)no1 [Compound 4, 4-((2'-amino-4'-methyl-[4,5'-bithiazol]-2-yl)amino)-N-(5-methylisoxazol-3-yl)benzenesulfonamide]
IC50 [1]: 30.1 µM

CC(=O)Nc1nc(C)c(-c2csc(Nc3ccc(C(=O)O)cc3)n2)s1 [Compound 8, 4-((2'-acetamido-4'-methyl-[4,5'-bithiazol]-2-yl)amino)benzoic acid]
effect on the tested cell lines [2]: little or no effect
IC50 [1]: 120 µM
effect on the tested cell lines [3]: little or no effect

CC(=O)Nc1nc(C)c(-c2csc(Nc3cccc(C(=O)O)c3)n2)s1 [Compound 11, 3-((2'-acetamido-4'-methyl-[4,5'-bithiazol]-2-yl)amino)benzoic acid]
effect on the tested cell lines [2]: little or no effect
IC50 [1]: 134 µM
effect on the tested cell lines [3]: little or no effect

CCC(=O)Nc1nc(C)c(-c2csc(Nc3ccc(C(=O)O)cc3)n2)s1 [Compound 13, 4-((4'-methyl-2'-propionamido-[4,5'-bithiazol]-2-yl)amino)benzoic acid]
IC50 [1]: 123 µM

Cc1nc(N)sc1-c1csc(Nc2ccc(C(=O)O)c(O)c2)n1 [Compound 6, 4-((2'-amino-4'-methyl-[4,5'-bithiazol]-2-yl)amino)-2-hydroxybenzoic acid]
effect on the tested cell lines [2]: little or no effect
IC50 [1]: 37.7 µM
effect on the tested cell lines [3]: little or no effect

Cc1nc(NC(=O)c2ccccc2)sc1-c1csc(Nc2ccc(C(=O)O)cc2)n1 [Compound 15, 4-((2'-benzamido-4'-methyl-[4,5'-bithiazol]-2-yl)amino)benzoic acid]
IC50 [1]: 12.6 µM

CC(=O)Nc1nc(C)c(-c2csc(Nc3ccc(O)cc3)n2)s1 [Compound 12, N-(2-((4-hydroxyphenyl)amino)-4'-methyl-[4,5'-bithiazol]-2'-yl)acetamide]
IC50 [1]: 193 µM

Cc1cc(O)ccc1Nc1nc(-c2sc(N)nc2C)cs1 [Compound 2, 4-((2'-amino-4'-methyl-[4,5'-bithiazol]-2-yl)amino)-3-methylphenol]
IC50 [1]: 35.8 µM

CC(=O)Nc1nc(C)c(-c2csc(Nc3ccccc3)n2)s1 [Compound 14, N-(4'-methyl-2-(phenylamino)-[4,5'-bithiazol]-2'-yl)acetamide]
EC50 [2, 5]: 47.7 µM
EC50 [2, 6]: 28.2 µM
IC50 [1]: 357 µM
EC50 [3, 7]: 32.3 µM
EC50 [3, 8]: 7.5 µM

COc1ccc(Nc2nc(-c3sc(NC(C)=O)nc3C)cs2)cc1 [Compound 10, N-(2-((4-methoxyphenyl)amino)-4'-methyl-[4,5'-bithiazol]-2'-yl)acetamide]
EC50 [2, 5]: 34.7 µM
EC50 [2, 6]: 14.6 µM
IC50 [1]: 22.7 µM
EC50 [3, 7]: 16.4 µM
EC50 [3, 8]: 4.5 µM

Cc1nc(N)sc1-c1csc(Nc2ccc(S(N)(=O)=O)cc2)n1 [Compound 5, 4-((2'-amino-4'-methyl-[4,5'-bithiazol]-2-yl)amino)benzenesulfonamide]
IC50 [1]: 70.1 µM

CC(=O)Nc1nc(C)c(-c2csc(Nc3cccc(O)c3)n2)s1 [Compound 7, N-(2-((3-hydroxyphenyl)amino)-4'-methyl-[4,5'-bithiazol]-2'-yl)acetamide]
EC50 [2, 5]: 45.6 µM
EC50 [2, 6]: 32.3 µM
IC50 [1]: 33.7 µM
EC50 [3, 7]: 12.3 µM
EC50 [3, 8]: 6.6 µM

CC(=O)c1ccc(Nc2nc(-c3sc(N)nc3C)cs2)cc1 [Compound 3, 1-(4-((2'-amino-4'-methyl-[4,5'-bithiazol]-2-yl)amino)phenyl)ethan-1-one]
IC50 [1]: 222 µM
solubility in the cell growth media [4]: low solubility
